{"source": "patent US20050042281A1", "about": "“Compositions for delivering therapeutic agents across the oral mucosa” (priority 2003, published 2005)", "key": {"[1]": {"conditions": "pH at which net charge is zero; cited from earlier work"}, "[2]": {"test": "Membrane assay (parallel artificial membrane, effective permeability)", "conditions": "for Papp: PAMPA", "experimental": "(§1) This assay uses a lipid-coated membrane to predict lipid mucosal membrane penetration.\n(§2) The membrane apparatus consists of a dodecane membrane sandwiched between a donor and acceptor cell.\n(§3) Membrane assays were performed using oxycodone HCl solutions at a pH of 6.5, 9.5, and 10.0. The pH of the solutions was adjusted using a freshly prepared 0.01 M sodium bicarbonate—sodium carbonate buffer. Permeation was measured by determining the concentrations of oxycodone in the acceptor cell and is expressed as Pe (effective permeability in centimeters per second)."}, "[3]": {"test": "Extent of un-ionized form at a given pH, worked out from pKa", "assay_type": "physicochemical", "from_the_text": "Conversion of the ionized form to the un-ionized form for basic agents is related to pH by the formula: pH=pKa +Log10 (Un-ionized concentration/Ionized concentration). When the pH is the same as the pKa, equimolar concentrations of the unionized form and ionized form exist. […] Similarly, when the pH is two units higher than the pKa, the ratio of un-ionized form to the ionized form is 100:1. As noted above, the un-ionized form is lipophilic and, therefore, more capable of passing through the mucous membranes than the ionized form, which is lipophobic in nature. Accordingly, increasing the pH of the saliva favors conversion of the ionized form into the un-ionized form for basic agents, and the final pH may be determined by making use of the above formula for any basic agent."}, "in vitro": {"test": "in vitro", "conditions": "PAMPA", "experimental": "as §1, §2, §3"}}}
{"smiles": "CN1CCC23c4c5ccc(O)c4OC2C(O)C=CC3C1C5", "note": "(stereo not shown) [morphine]", "values": [{"measurement": "isoelectric point", "setting": "[1]", "value": 9.1}]}
{"smiles": "Cc1nccn1CC1CCc2c(c3ccccc3n2C)C1=O", "note": "(stereo not shown) [Ondansetron]", "values": [{"measurement": "increase of effective permeability", "setting": "[2]; pH 8.5 relative to pH 5.4", "value": "> 1000", "unit": "%"}, {"measurement": "increase of effective permeability", "setting": "[2]; pH 8.5 relative to pH 7.4", "value": "more than 200%"}]}
{"smiles": "COc1ccc2c3c1O[C@H]1C(=O)CC[C@@]4(O)[C@@H](C2)N(C)CC[C@]314", "note": "[Oxycodone, oxycodone]", "values": [{"measurement": "un-ionized", "setting": "[3]; at pH 9.9", "value": 99, "unit": "%"}, {"measurement": "un-ionized", "setting": "[3]; at pH 10.9", "value": 100, "unit": "%"}, {"measurement": "Papp", "setting": "[2]; pH 6.5", "value": 227, "unit": "×10⁻⁶ cm/s"}, {"measurement": "Papp", "setting": "[2]; pH 9.5", "value": 490, "unit": "×10⁻⁶ cm/s"}, {"measurement": "Papp", "setting": "[2]; pH 10", "value": 554, "unit": "×10⁻⁶ cm/s"}]}
{"smiles": "CNS(=O)(=O)Cc1ccc2[nH]cc(CCN(C)C)c2c1", "note": "[Sumatriptan, sumatriptan]", "values": [{"measurement": "un-ionized", "setting": "[3]; at pH 10.5", "value": 99, "unit": "%"}, {"measurement": "un-ionized", "setting": "[3]; at pH 11.5", "value": 100, "unit": "%"}, {"measurement": "Papp", "setting": "in vitro; pH 9", "value": 599, "unit": "×10⁻⁶ cm/s"}, {"measurement": "Papp", "setting": "in vitro; pH 9.5", "value": 945, "unit": "×10⁻⁶ cm/s"}, {"measurement": "Papp", "setting": "in vitro; pH 10", "value": 1560, "unit": "×10⁻⁶ cm/s"}]}
